Laboratory results taken from patent publication US8741357B2, “Cosmetic or dermopharmaceutical composition comprising an euglena extract” (Sederma SAS, priority 2005, dated 2014).

Test system: Human keratinocytes
Assay: de novo IP3 synthesis in KHN cells (RIA)
Format: cell-based
Method: The IP3 produced by the cell is extracted with perchloric acid and assay is conducted by a RIA method based on competition for a specific IP3 binding protein between radioactive IP3 and cell extract IP3. The intracellular IP3 is assayed after stimulation with the extract of Euglena, vs.control. The positive control consists in Platelet-Activating Factor (PAF).
Human keratinocytes were cultured and incubated to 90% confluence. The cells were incubated in the presence of extract of euglena at various concentrations or the control for 1 minute.

Platelet-Activating Factor [PAF]
IP3 (positive control, mean of n = 3): 17.48 pmol/mL | Variation of IP3 (positive control, relative to control): 515 | IP3 production, result in words (vs control): stimulated IP3 production
